Experimental data as given in PubChem BioAssay AID588774 (The Scripps Research Institute Molecular Screening Center, 2011).
The source made the active and inactive calls.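 How the source made its calls: active means target enzyme inhibited at least 50% at a set dose, and selective over every off-target enzyme by a set factor; inactive means weaker inhibition or too little selectivity.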

Tests used:
[1] = biological target: Platelet-activating factor acetylhydrolase (Mus musculus) (UniProt Q60963); assay: pPAFAH inhibition and serine hydrolase selectivity, SAR follow-up, selectivity assay for pPAFAH inhibitor project, biochemical, gel-based, FP-Rh fluorescence, complex proteome, SAR compounds (AID 588774); details: gel-based competitive ABPP, pPAFAH, stronger effect = higher value;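 on inhibition: 0% = DMSO-only band intensity and 100% = blank gel background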
Chain of Platelet-activating factor acetylhydrolase (Mus musculus) (Q60963 whole entry, looked up): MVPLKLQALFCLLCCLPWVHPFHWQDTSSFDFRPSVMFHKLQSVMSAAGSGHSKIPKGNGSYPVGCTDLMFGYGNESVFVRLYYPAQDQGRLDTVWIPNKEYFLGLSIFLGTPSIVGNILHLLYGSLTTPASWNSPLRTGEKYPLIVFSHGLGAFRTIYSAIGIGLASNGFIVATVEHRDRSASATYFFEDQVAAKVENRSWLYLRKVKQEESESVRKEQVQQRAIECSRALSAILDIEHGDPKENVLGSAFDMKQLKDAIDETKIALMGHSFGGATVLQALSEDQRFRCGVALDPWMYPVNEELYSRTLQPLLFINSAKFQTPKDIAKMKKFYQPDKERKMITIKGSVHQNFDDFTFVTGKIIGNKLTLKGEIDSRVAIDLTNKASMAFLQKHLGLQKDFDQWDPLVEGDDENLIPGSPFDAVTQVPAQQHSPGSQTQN

[2] = system: ABHD3; assay: as above; details: gel-based competitive ABPP, at 10 µM, stronger effect = higher value
[3] = as above; details: gel-based competitive ABPP, at 10 µM
[4] = system: ABHD6; assay: as above; details: gel-based competitive ABPP, stronger effect = higher value
[5] = system: pPAFAH; assay: as above; details: gel-based competitive ABPP, anti-targets inhibited, at 10 µM
[6] = biological target: Monoglyceride lipase (Mus musculus) (UniProt O35678); assay: as above; details: gel-based competitive ABPP, MAGL, stronger effect = higher value
Chain of Monoglyceride lipase (Mus musculus) (O35678 whole entry, looked up): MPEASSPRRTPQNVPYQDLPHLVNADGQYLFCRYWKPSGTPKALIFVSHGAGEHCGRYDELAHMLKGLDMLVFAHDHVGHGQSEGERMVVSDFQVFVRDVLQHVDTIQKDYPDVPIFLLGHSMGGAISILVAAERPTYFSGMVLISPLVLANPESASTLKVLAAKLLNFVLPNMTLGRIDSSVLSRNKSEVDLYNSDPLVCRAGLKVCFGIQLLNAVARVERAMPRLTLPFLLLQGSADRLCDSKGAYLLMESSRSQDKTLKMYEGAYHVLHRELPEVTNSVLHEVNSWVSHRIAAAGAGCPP

[7] = system: FAAH; assay: as above; details: gel-based competitive ABPP, stronger effect = higher value
[8] = biological target: ABHD4 (UniProt Q8VD66); assay: as above; details: gel-based competitive ABPP, stronger effect = higher value
Chain of ABHD4 (Q8VD66 whole entry, looked up): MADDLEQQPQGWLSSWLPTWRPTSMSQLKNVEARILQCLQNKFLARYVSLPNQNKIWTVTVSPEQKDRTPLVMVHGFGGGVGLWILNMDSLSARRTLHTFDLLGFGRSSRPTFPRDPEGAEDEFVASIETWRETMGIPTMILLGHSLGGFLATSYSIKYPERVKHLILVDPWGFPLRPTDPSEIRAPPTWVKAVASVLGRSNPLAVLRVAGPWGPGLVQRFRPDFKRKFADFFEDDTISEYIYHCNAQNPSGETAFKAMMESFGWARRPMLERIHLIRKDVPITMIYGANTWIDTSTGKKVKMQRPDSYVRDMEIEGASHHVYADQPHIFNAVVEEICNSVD

[9] = system: LYPLA1; assay: as above; details: gel-based competitive ABPP, stronger effect = higher value
[10] = system: LYPLA2; assay: as above; details: gel-based competitive ABPP, stronger effect = higher value

Row | SMILES | inhibition ([1]; at 10 µM) | inhibition ([1]; inhibition, at 0.1 µM) [%] | inhibition ([1]; inhibition, at 1 µM) [%] | inhibition [2] | anti-target count ([3]; ABHD3, anti-targets inhibited) | anti-target count ([3]; ABHD4, anti-targets inhibited) | anti-target count ([3]; ABHD6, anti-targets inhibited) | anti-target count ([3]; FAAH, anti-targets inhibited) | anti-target count ([3]; LYPLA1, anti-targets inhibited) | anti-target count ([3]; LYPLA2, anti-targets inhibited) | anti-target count ([3]; MAGL, anti-targets inhibited) | inhibition ([4]; at 10 µM) | anti-target count [5] | inhibition ([6]; at 10 µM) | inhibition ([7]; at 10 µM) | inhibition ([8]; at 10 µM) | inhibition ([8]; inhibition, at 0.1 µM) [%] | inhibition ([8]; inhibition, at 1 µM) [%] | inhibition ([9]; at 10 µM) | inhibition ([10]; at 10 µM) | other results
1 | Cc1cc(N2CCN(C(=O)Oc3ccc(C4CCCCC4)cc3)CC2)c2ccccc2n1 | 95% (inactive) | 2 | 63 | 0% (inactive) | 0 | 0 | 0 | 0 | 0 | 0 | 0 | 0% (inactive) | 0 | 0% (inactive) | 0% (inactive) | 0% (inactive) | – | – | 0% (inactive) | 0% (inactive) | –
2 | Cc1cc(N2CCN(C(=O)Oc3ccc(-n4cccc4)cc3)CC2)c2ccccc2n1 | 87% (inactive) | 35 | 80 | 0% (inactive) | 0 | 0 | 0 | 0 | 0 | 0 | 0 | 0% (inactive) | 0 | 0% (inactive) | 0% (inactive) | 0% (inactive) | – | – | 0% (inactive) | 0% (inactive) | –
3 | Cc1cc(N2CCN(C(=O)Oc3ccc(-c4ccccc4)cc3)CC2)c2ccccc2n1 | 100% | 66 | 95 | 0% (inactive) | 0 | 0 | 0 | 0 | 0 | 0 | 0 | 0% (inactive) | 0 | 0% (inactive) | 0% (inactive) | 0% (inactive) | – | – | 0% (inactive) | 0% (inactive) | –

The next lines start with results.

Row | inhibition ([1]; at 10 µM) | inhibition ([1]; inhibition, at 0.1 µM) [%] | inhibition ([1]; inhibition, at 1 µM) [%] | inhibition [2] | anti-target count ([3]; ABHD3, anti-targets inhibited) | anti-target count ([3]; ABHD4, anti-targets inhibited) | anti-target count ([3]; ABHD6, anti-targets inhibited) | anti-target count ([3]; FAAH, anti-targets inhibited) | anti-target count ([3]; LYPLA1, anti-targets inhibited) | anti-target count ([3]; LYPLA2, anti-targets inhibited) | anti-target count ([3]; MAGL, anti-targets inhibited) | inhibition ([4]; at 10 µM) | anti-target count [5] | inhibition ([6]; at 10 µM) | inhibition ([7]; at 10 µM) | inhibition ([8]; at 10 µM) | inhibition ([8]; inhibition, at 0.1 µM) [%] | inhibition ([8]; inhibition, at 1 µM) [%] | inhibition ([9]; at 10 µM) | inhibition ([10]; at 10 µM) | SMILES | other results
4 | 93% (inactive) | 46 | 87 | 0% (inactive) | 1 | 1 | 1 | 1 | 1 | 1 | 1 | 0% (inactive) | 1 | 0% (inactive) | 0% (inactive) | 72% (inactive) | 32 | 39 | 0% (inactive) | 0% (inactive) | Cc1cc(N2CCN(C(=O)Oc3ccc(C(F)(F)F)cc3)CC2)c2ccccc2n1 | –
5 | 99% | 87 | 87 | 0% (inactive) | 3 | 3 | 3 | 3 | 3 | 3 | 3 | 38% (inactive) | 3 | 97% | 99% (inactive) | 48% (inactive) | 36 | 38 | 73% (inactive) | 24% (inactive) | Cc1cc(N2CCN(C(=O)n3oc4cc(Cl)ccc4c3=O)CC2)c2ccccc2n1 | inhibition ([4]; inhibition, at 0.1 µM): 19%; inhibition ([4]; inhibition, at 1 µM): 32%; inhibition ([6]; inhibition, at 0.1 µM): 54%; inhibition ([6]; inhibition, at 1 µM): 73%; inhibition ([7]; inhibition, at 0.1 µM): 39%; inhibition ([7]; inhibition, at 1 µM): 79%; inhibition ([9]; inhibition, at 1 µM): 13%; inhibition ([10]; inhibition, at 0.1 µM): 3%; inhibition ([10]; inhibition, at 1 µM): 6%
6 | 100% | 89 | 91 | 0% (inactive) | 4 | 4 | 4 | 4 | 4 | 4 | 4 | 53% | 4 | 86% | 100% | 0% (inactive) | – | – | 50% (inactive) | 0% (inactive) | Cc1cc(N2CCN(C(=O)Oc3noc4cc(Cl)ccc34)CC2)c2ccccc2n1 | inhibition ([4]; inhibition, at 0.1 µM): 53%; inhibition ([4]; inhibition, at 1 µM): 53%; inhibition ([6]; inhibition, at 0.1 µM): 79%; inhibition ([6]; inhibition, at 1 µM): 83%; inhibition ([7]; inhibition, at 0.1 µM): 87%; inhibition ([7]; inhibition, at 1 µM): 100%; inhibition ([9]; inhibition, at 0.1 µM): 20%; inhibition ([9]; inhibition, at 1 µM): 25%
